According to publication PMC9850727, “Benzoxazolone-5-Urea Derivatives as Human Soluble Epoxide Hydrolase (sEH) Inhibitors” (ACS Omega, 2023):

How the values were obtained:
human recombinant sEH = biological target: T1, human recombinant sEH (Homo sapiens, UniProt P34913); assay: Cell-free sEH activity assay (fluorescence-based, PHOME substrate); assay type: biochemical; conditions: mean ± SEM, n = 3, benzoxazolone-ureas (Table 2); for sEH activity % of control at 1 μM / sEH activity % of control at 10 μM: residual activity; for IC50: cell-free assay
T1 construct: made in house; host or cells: Sf9 cells infected with recombinant baculovirus (from Dr. Bruce Hammock, UC Davis)
T1 sequence (P34913 1-555): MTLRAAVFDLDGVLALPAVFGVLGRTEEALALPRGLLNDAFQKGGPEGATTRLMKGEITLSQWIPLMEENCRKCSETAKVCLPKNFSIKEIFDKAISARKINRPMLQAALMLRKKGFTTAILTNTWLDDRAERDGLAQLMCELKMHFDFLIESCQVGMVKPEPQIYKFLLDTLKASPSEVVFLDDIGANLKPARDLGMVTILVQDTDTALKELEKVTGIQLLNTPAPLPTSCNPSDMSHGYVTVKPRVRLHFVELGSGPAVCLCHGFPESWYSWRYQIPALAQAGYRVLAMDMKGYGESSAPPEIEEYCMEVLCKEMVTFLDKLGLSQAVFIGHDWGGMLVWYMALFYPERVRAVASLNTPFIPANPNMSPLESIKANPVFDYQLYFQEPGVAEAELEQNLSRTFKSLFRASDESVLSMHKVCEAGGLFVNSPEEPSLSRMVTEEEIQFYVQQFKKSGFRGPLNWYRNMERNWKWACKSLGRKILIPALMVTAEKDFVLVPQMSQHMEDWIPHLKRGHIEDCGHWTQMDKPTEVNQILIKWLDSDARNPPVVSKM
From the text: Inspired by the reported crystallographic screening studies,[12],[13],[15] a series of aryl amide (12, 15–21) or urea (31–39) derivatives with a benzoxazolone head group were synthesized and assessed for inhibition of human recombinant sEH in a cell-free activity assay[27] (Tables 1 and 2). […] Consequently, compounds in which the amide group is attached to the benzoxazolone ring through NH could outperform their direct reversed analogues by more favorable interactions in the central pocket of sEH. In addition, simple methylation of the benzoxazolone NH in 17–18 engendered noticeable differences in sEH inhibition relative to the unmethylated counterparts 15–16, implying that a free NH with H-bond donor property at this location is also important for the observed potency. Subsequently, the positioning of the amide group at the 5-position of the benzoxazolone ring also retained the inhibitory activity.
Human recombinant sEH was expressed and purified as published before.[31] Briefly, Sf9 cells were infected with a recombinant baculovirus (obtained from Dr. Bruce Hammock, University of California, Davis, CA). Following 72 h of transfection, the cells were centrifuged and then sonicated (3 × 10 s at 4 °C) in lysis buffer comprising glycerol (10%), NaHPO4 (50 mM, pH 8), leupeptin (10 μg/mL), NaCl (300 mM), phenylmethanesulfonyl fluoride (1 mM), EDTA (1 mM), and soybean trypsin inhibitor (60 μg/mL). After centrifugation at 100,000g (60 min, 4 °C), the obtained supernatants were subjected to a benzylthio-sepharose-affinity chromatography and eluted with 4-fluorochalcone oxide in PBS containing 1 mM DTT and 1 mM EDTA for purification of sEH. The enzyme was dialyzed and concentrated (Millipore Amicon-Ultra-15 centrifugal filter), and the solution was further assayed for total protein content by a protein detection kit (Bio-Rad Laboratories, Munich, Germany). The epoxide hydrolase activity was measured using a fluorescence-based assay, as reported before.[27] In brief, sEH was diluted in Tris buffer (25 mM, pH 7) containing BSA (0.1 mg/mL) to a suitable enzyme concentration and pretreated with test compounds or 0.1% DMSO as vehicle for 10 min at room temperature. To start the reaction, 50 μM of the PHOME substrate (3-phenyl-cyano(6-methoxy-2-naphthalenyl)methyl ester-2-oxiraneacetic acid), a nonfluorescent compound that is enzymatically converted by sEH into fluorescent 6-methoxy-naphtaldehyde, was added at RT. The reaction was stopped by addition of ZnSO4 (200 mM) after 60 min, and fluorescence was measured (λem 465 nm, λex 330 nm) by employing a NOVOstar microplate reader (BMG LABTECH GmbH, Ortenberg, Germany). If required, the potential fluorescence of test compounds was subtracted from the readout.

monocytes = assay: Cytotoxic activity in monocytes (MTT, metabolic activity after 24 h); assay type: cell-based, human; conditions: metabolic activity (MTT) after 24 h, data not shown in main text (Figure S52)
From the text: The benzyl group appears as a frequently recurring chemical fragment in the architecture of amide or urea-type sEH inhibitors.[4] Therefore, we extracted this common fragment and combined it with benzoxazolone using a urea backbone with the aim of improving a sEH inhibitory potency in the newly designed analogues (Table 2). […] This implies that voluminous substituents at this position are better accommodated at the binding site. […] Taken together, 2- or appropriate 2,4-disubstitution patterns govern potent sEH inhibition in this series. Overall, the preliminary SAR in this work indicated a new favorable structural feature at the right- and left-hand side of the compounds to achieve potent sEH inhibition. Another aspect of characterizing the compounds is determining their cytotoxic activity; for this purpose, we used monocytes due to their high expression of sEH. By applying 33 and 38 to monocytes and measuring the metabolic activity after 24 h, we could exclude cytotoxic activity up to concentrations of 1 μM (data not shown).
The cytotoxic activities of compounds were assessed as previously described.[29] […] The absorbance was determined at 570 nm using a Multiskan Spectrum microplate reader (Thermo Fisher Scientific, Schwerte, Germany). […]

sEH activity % of control at 1 μM (human recombinant sEH) | sEH activity % of control at 10 μM (human recombinant sEH) | IC50 (human recombinant sEH) [nM] | melting point | Structure (SMILES) | concentration up to which cytotoxic activity is excluded (monocytes) [µM]
0.0 ± 0.0 % of control | 0.0 ± 0.0 % of control | 0.7 ± 0.08 | 260.9 °C (dec.) | O=C(NCc1ccc(Cl)cc1Cl)Nc1ccc2oc(=O)[nH]c2c1 [Compound 38, 1-[(2,4-Dichlorophenyl)methyl]-3-(2-oxo-2,3-dihydro-1,3-benzoxazol-5-yl)urea] | > 1
1.9 ± 3.2 % of control | 6.8 ± 5.9 % of control | 0.39 ± 0.1 |  | O=C(NCc1ccccc1OC(F)(F)F)Nc1ccc2oc(=O)[nH]c2c1 [Compound 33, 3-(2-Oxo-2,3-dihydro-1,3-benzoxazol-5-yl)-1-{[2-(trifluoromethoxy)phenyl]methyl}urea] | > 1
